The source of these data is publication PMC5207512, “Inhibition of Helicobacter pylori and Its Associated Urease by Palmatine: Investigation on the Potential Mechanism” (PLoS ONE, 2017).

Series [1] concerns the target T1, jack bean urease (JBU) (Canavalia ensiformis, UniProt P07374).
T1 construct: Urease from jack bean (Canavalia ensiformis, JBU); purchased Sigma-Aldrich (St Louis, MO, USA) type III (catalogue number not given)
Kind of series: biochemical. Conditions: Fig 4B JBU, Pal 0.5 mM, thiols 1.25 mM, replicates. As for the experimental part:
(§1) For the protection with thiols-containing compounds, the mixture consisting of 0.25 mg/mL urease (HPU or JBU), 0.5 mM Pal (for both HPU and JBU) and 1.25 mM thiols (DTT, GSH and L-cys) was incubated for 5, 10, 20, and 40 min at 37°C, respectively. The control sample instead of the protectors contained a proper volume of respective buffer.

Series [2] addresses T2, H. pylori urease (HPU) (Helicobacter pylori, UniProt P69996).
T2 construct: HPU was prepared as previously described; made in house
Put plainly: biochemical. Conditions: Fig 4A HPU, Pal 0.5 mM, thiols 1.25 mM, replicates. As for the experimental part: as §1

Series [3] concerns the target T1, jack bean urease (JBU). Kind of series: biochemical. It is filed as biochemical. Conditions: Fig 5B JBU, thiols 1.25 mM, Pal 0.5 mM, 20+20 min. As for the experimental part:
(§2) The reaction mixture consisted of 0.25 mg/mL HPU or JBU, 0.5 mM Pal (for both HPU and JBU), and 1.25 mM thiols (DTT, GSH, or L-cys) in 20 mM HEPES buffer (pH 7.5). The components of the incubation mixture were mixed according to three procedures: (1) Urease was added to the mixture after a 20-min co-incubation of Pal with thiol. (2) Pal was added to the mixture after a 20-min co-incubation of urease with thiol. (3) Thiols were added to the mixture after a 20-min co-incubation of urease with Pal. The incubation mixture containing all components was incubated for further 20 min and the activity of urease was determined. The experiments were triply performed.

Series [4] addresses T2, H. pylori urease (HPU). Put plainly: biochemical. It counts as biochemical. Conditions: Fig 5A HPU, thiols 1.25 mM, Pal 0.5 mM, 20+20 min. As for the experimental part: as §2
The target of series [5] is T1, jack bean urease (JBU). Put plainly: biochemical. It counts as biochemical. Conditions: for Urease activity: Fig 6B JBU. As for the experimental part: (§3) The reactivation of Pal-inactivated urease was investigated by DTT application. The preincubation mixture consisted of 0.25 mg/mL HPU or JBU and 0.5 mM Pal in 20 mM HEPES buffer (pH 7.5). Then the mixture was further incubated with 1.25 mM DTT after 20 min. The enzymatic activity of urease was determined before and after the addition of DTT. After a while, aliquots were withdrawn and the urease residual activity was determined. The experiments were repeated three times.

Series [6] concerns the target T2, H. pylori urease (HPU). Kind of series: biochemical. It counts as biochemical. Conditions: for Urease activity: Fig 6A HPU. As for the experimental part: as §3
Details of series [7]: method as in PMID 23159469. Conditions: among berberine, coptisine, palmatine and epiberberine; in vitro and in vivo assays; cited from earlier work.
Series [8] has as its system HPU. Set-up: method as in PMID 26669678. Conditions: cited from earlier work.
The test system of series [9] is JBU. Set-up: method as in PMID 26669678. Conditions: cited from earlier work.
For series [10], the target named is T1, jack bean urease (JBU). Kind of series: biochemical. It counts as biochemical. Conditions: Fig 4D JBU; BA or NaF 5 mM preincubated 20 min, Pal 0.5 mM 20 min. The protocol:
(§4) For the protection with inorganic compounds (BA and NaF), 0.25 mg/mL urease (HPU or JBU) was preincubated with 5 mM BA or 5 mM NaF for 20 min. Following preincubation, each sample of the protected urease was incubated with 0.5 mM Pal for 20 min. The samples containing a proper volume of respective buffer instead of Pal served as comparison with the abovementioned systems. The experiments were triply performed.

In series [11] the target is T2, H. pylori urease (HPU). Kind of series: biochemical. It is filed as biochemical. Conditions: Fig 4C HPU; BA or NaF 5 mM preincubated 20 min, Pal 0.5 mM 20 min. The protocol:
as §4

The subject of series [12] is H. pylori ICDC 111001 (clinical isolate). Put plainly: MIC by agar dilution method. It is filed as cell-based. Conditions: Helicobacter pylori. As for the experimental part:
(§5) A total of four H. pylori strains were studied, including three reference strains ATCC 43504, NCTC 26695 and SS1 gifted from Professor Richard Ferrero, Monash University, Australia, and one clinical isolate ICDC 111001 obtained from Professor Zhang Jianzhong, Chinese Center of Disease Control and Prevention. […] The MICs of Pal against the four H. pylori strains were evaluated by using agar dilution method. […] H. pylori strains were harvested and resuspended in PBS (1.0–2.0 McFarland were defined based on the strain properties). […] After 72 h, the MIC values were determined as the lowest concentration at which there was no strain growth judged by visual examination. Metronidazole was used as the positive control. The experiments were evaluated under two different pH (7.4 and 5.3) conditions and repeated twice.
On the technique in general: In agar dilution, organisms are placed on agar that contains the substance at set levels.

Series [13] has as its system H. pylori SS1. Kind of series: MIC by agar dilution method. It is filed as cell-based. Conditions: Helicobacter pylori. The protocol:
as §5

Series [14] relates to H. pylori ATCC 43504. Put plainly: MIC by agar dilution method. It is filed as cell-based. Conditions: Helicobacter pylori. As for the experimental part:
as §5

For series [15], the system named is H. pylori NCTC 26695. Put plainly: MIC by agar dilution method. Conditions: Helicobacter pylori. It counts as cell-based. As for the experimental part: as §5
[16] abbreviates: 1.25 mM DTT, control of reactivation assay.
[17] abbreviates: incubation time 5 min, Pal 0.5 mM, DTT 1.25 mM.
Setting [18] is: incubation time 10 min, Pal 0.5 mM, DTT 1.25 mM.
Where [19] appears, read: incubation time 15 min, Pal 0.5 mM, DTT 1.25 mM.
Where [20] appears, read: incubation time 20 min, Pal 0.5 mM, DTT 1.25 mM.
The mark [21] stands for this setting: incubation time 120 min, DTT added post 20 min.

In brackets after ≈: the same amount, converted by molar mass. Several values for one entry are separate records, joined by “and”; a condition that tells them apart may be missing. Equal entries are not always repeated.

T1 sequence (P07374 whole entry, looked up): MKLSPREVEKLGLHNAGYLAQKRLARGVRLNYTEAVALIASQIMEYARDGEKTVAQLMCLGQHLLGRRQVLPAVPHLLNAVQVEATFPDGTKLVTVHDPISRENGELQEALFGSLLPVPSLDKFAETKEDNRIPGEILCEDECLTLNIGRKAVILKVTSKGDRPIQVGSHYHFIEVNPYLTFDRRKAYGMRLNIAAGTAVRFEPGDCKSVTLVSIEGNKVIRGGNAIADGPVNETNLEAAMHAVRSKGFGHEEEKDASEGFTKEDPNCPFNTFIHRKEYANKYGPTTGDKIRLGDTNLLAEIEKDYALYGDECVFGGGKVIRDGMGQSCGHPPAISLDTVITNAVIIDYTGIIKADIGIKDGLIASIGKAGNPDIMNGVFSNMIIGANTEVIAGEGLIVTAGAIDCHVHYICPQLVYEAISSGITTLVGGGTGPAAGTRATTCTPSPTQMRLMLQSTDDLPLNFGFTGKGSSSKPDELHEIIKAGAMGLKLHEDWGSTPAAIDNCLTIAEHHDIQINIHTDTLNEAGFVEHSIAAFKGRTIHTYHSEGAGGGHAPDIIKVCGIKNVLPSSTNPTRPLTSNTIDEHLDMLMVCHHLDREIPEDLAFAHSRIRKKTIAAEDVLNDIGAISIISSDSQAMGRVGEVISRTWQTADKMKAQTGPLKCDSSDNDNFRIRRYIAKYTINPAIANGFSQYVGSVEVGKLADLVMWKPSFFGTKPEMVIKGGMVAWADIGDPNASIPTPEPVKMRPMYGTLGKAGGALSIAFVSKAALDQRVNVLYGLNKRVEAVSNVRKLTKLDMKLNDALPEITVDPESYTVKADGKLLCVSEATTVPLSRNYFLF
T2 sequence (P14916 whole entry): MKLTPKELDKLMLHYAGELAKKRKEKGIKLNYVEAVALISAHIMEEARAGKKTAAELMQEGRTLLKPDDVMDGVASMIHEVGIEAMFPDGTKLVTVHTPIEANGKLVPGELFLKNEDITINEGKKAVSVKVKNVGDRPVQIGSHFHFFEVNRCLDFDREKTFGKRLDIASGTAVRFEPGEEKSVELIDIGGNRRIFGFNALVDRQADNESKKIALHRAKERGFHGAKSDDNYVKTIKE
T2 sequence (P69996 whole entry): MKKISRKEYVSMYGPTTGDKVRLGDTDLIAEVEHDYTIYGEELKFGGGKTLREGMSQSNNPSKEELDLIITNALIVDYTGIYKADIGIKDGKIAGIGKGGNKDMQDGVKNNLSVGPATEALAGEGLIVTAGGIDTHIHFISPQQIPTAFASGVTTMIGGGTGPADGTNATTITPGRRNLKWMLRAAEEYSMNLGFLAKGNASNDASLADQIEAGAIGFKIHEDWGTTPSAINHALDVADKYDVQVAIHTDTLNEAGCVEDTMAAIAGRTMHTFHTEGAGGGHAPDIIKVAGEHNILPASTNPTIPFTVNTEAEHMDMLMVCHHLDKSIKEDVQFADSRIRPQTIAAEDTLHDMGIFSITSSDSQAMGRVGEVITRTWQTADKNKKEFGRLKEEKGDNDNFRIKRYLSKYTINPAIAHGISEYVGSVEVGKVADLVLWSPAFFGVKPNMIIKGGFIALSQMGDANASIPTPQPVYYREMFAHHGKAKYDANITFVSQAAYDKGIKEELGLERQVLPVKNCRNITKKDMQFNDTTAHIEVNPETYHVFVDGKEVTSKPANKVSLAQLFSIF

With `O[C@@H](CS)[C@@H](O)CS` (racemic) [DTT, dithiothreithol], the “Residual urease activity (percent of control)” value was 93.6533% and 90.8565% and 95.5784% in series [1] (5 min incubation); 106.756% and 109.689% and 104.897% in [1] (10 min incubation); 115.579% and 114.01% and 114.79% in series [1] (20 min incubation); 142.945% and 126.676% and 135.643% in [1] (40 min incubation); 81.4793% and 82.3893% and 84.6876% in [2] (5 min incubation); 90.4823% and 88.7843% and 92.6863% in series [2] (10 min incubation). Further, the “Residual urease activity (percent of control)” value was 93.6879% and 92.2701% and 94.7893% in series [2] (20 min incubation); 98.9725% and 95.7934% and 96.4654% in series [2] (40 min incubation); 164.505% and 163.42% and 167.948% in series [3] (order (Protector+Pal)+urease); 156.562% and 141.035% and 115.717% in series [3] (order (urease+Pal)+Protector); 175.198% and 170.348% and 183.958% in series [3] (order (urease+Protector)+Pal); 93.1647% and 102.135% and 96.7756% in series [4] (order (Protector+Pal)+urease). Moreover, the “Residual urease activity (percent of control)” value in series [4] (order (urease+Pal)+Protector) is 108.215% and 111.632% and 112.117%; in [4] (order (urease+Protector)+Pal) it was 93.9563% and 102.92% and 98.1268%. Further, in series [5] (setting [16]), the “JBU activity with DTT without Pal” value is listed as “ca. 100%”. The Urease activity is 121.742% and 114.981% and 108.343% in series [5] (setting [17]); 110.236% and 112.928% and 115.246% in series [5] (setting [18]); 113.236% and 116.183% and 119.514% in [5] (setting [19]); 121.141% and 121.265% and 120.209% in series [5] (setting [20]); 120.019% and 120.291% and 121.459% in series [5] (incubation time 25 min); 107.983% and 105.801% and 103.225% in series [5] (incubation time 40 min). The Urease activity in [5] (incubation time 60 min) is 111.088% and 107.798% and 104.326%; in [5] (incubation time 90 min), 107.125% and 104.437% and 101.122%; in [5] (setting [21]), 112.893% and 110.524% and 108.243%; in series [6] (setting [17]), 95.491% and 88.7241% and 81.9292%; in series [6] (setting [18]), 99.0165% and 99.0712% and 98.1423%; in series [6] (setting [19]) it was 99.1346% and 97.2572% and 95.4326%. Moreover, the Urease activity in series [6] (setting [20]) is 97.9325% and 92.9515% and 87.6438%; in series [6] (incubation time 40 min, DTT added post 20 min) it was 92.9813% and 91.5048% and 89.9013%; in series [6] (incubation time 60 min), 98.0126% and 92.5129% and 87.7924%; in series [6] (incubation time 90 min) it was 91.4647% and 89.1159% and 85.7645%; in series [6] (setting [21]), 96.0166% and 88.9974% and 82.2782%. The “HPU activity with DTT without Pal” value in [6] (setting [16]) is “ca. 100%”.
For `COc1ccc2cc3[n+](cc2c1OC)CCc1cc2c(cc1-3)OCO2` [berberine], in [7], the toxicity entry was “relatively more toxic”. Moreover, the IC50 in series [8] was 10.2 ± 1.1 mM; in series [9] it was greater than 13 mM.
`[F-].[Na+]` [NaF, sodium fluoride]: the “Residual urease activity (percent of control)” value in series [10] is 42.9% and 43.7771% and 43.724% and 41.2392%; in series [11], 54.6% and 54.7779% and 54.0024% and 55.0707%.
For the compound `Cc1ncc([N+](=O)[O-])n1CCO` [Met, Metronidazole], the MIC in series [12] (pH 5.3, 72 h) was found to be 2 µg/mL (≈ 11.7 µM); in series [12] (pH 7.4, 72 h), 2 µg/mL (≈ 11.7 µM); in [13] (pH 5.3, 72 h), 0.5 µg/mL (≈ 2.92 µM); in [13] (pH 7.4, 72 h), 0.5 µg/mL (≈ 2.92 µM); in series [14] (ATCC43504, pH 5.3, 72 h), 0.5 µg/mL (≈ 2.92 µM); in series [14] (ATCC43504, pH 7.4, 72 h), 0.5 µg/mL (≈ 2.92 µM). Further, the minimal inhibitory concentration (MIC) worked out at 2 µg/mL (≈ 11.7 µM) in series [15] (NCTC26695, pH 5.3, 72 h) and 2 µg/mL (≈ 11.7 µM) in [15] (NCTC26695, pH 7.4, 72 h).
Consider `OB(O)O` [BA, boric acid], for which the “Residual urease activity (percent of control)” value is 86.6% and 87.7694% and 84.1052% and 87.7801% in [10]; 98.6% and 98.6098% and 99.1614% and 98.0689% in [11].

A word on the IC50: it is the concentration needed to halve the response being measured. The term MIC denotes the smallest concentration in the dilution series that meets the test's criterion for growth inhibition. Read a high MIC as a need for much substance.
